# Source: ChEMBL document CHEMBL4507318, “Data for DCP probe BAY-985” (2021)
# Key:
# [1] = biological target: 5'-AMP-activated protein kinase catalytic subunit alpha-1 (Homo sapiens) (UniProt Q13131)
# [2] = test system: Phosphatidylinositol 4,5-bisphosphate 3-kinase catalytic subunit alpha isoform (Homo sapiens), P42336 [C420R]
# [3] = biological target: Cyclin-dependent kinase 7 (Homo sapiens) (UniProt P50613)
# [4] = biological target: Mitogen-activated protein kinase 4 (Homo sapiens) (UniProt P31152)
# [5] = biological target: Tyrosine-protein kinase Mer (Homo sapiens) (UniProt Q12866)
# [6] = biological target: Serine/threonine-protein kinase 38-like (Homo sapiens) (UniProt Q9Y2H1)
# [7] = biological target: Serine/threonine-protein kinase PLK4 (Homo sapiens) (UniProt O00444)
# [8] = biological target: Delta-type opioid receptor (Homo sapiens) (UniProt P41143); details: Compound concentration 10.0 uM
# Rattus norvegicus = species: Rattus norvegicus; details: Compound concentration 10.0 uM
# [9] = biological target: Sigma intracellular receptor 2 (Homo sapiens, UniProt Q5BJF2); details: Compound concentration 10.0 uM
# [10] = biological target: Serine/threonine-protein kinase 32A (Homo sapiens) (UniProt Q8WU08)
# [11] = biological target: Serine/threonine-protein kinase RIO1 (Homo sapiens) (UniProt Q9BRS2)
# [12] = test system: Receptor-type tyrosine-protein kinase FLT3 (Homo sapiens), P36888 [K663Q]
# [13] = biological target: Mitogen-activated protein kinase kinase kinase 5 (Homo sapiens) (UniProt Q99683)
# [14] = biological target: BMP-2-inducible protein kinase (Homo sapiens) (UniProt Q9NSY1)
# [15] = biological target: Mitogen-activated protein kinase kinase kinase 7 (Homo sapiens) (UniProt O43318)
# [16] = biological target: High affinity nerve growth factor receptor (Homo sapiens) (UniProt P04629)
# [17] = biological target: Calcium/calmodulin-dependent protein kinase type II subunit alpha (Homo sapiens) (UniProt Q9UQM7)
# [18] = biological target: Non-receptor tyrosine-protein kinase TYK2 (Homo sapiens) (UniProt P29597)
# [19] = biological target: Receptor-type tyrosine-protein kinase FLT3 (Homo sapiens) (UniProt P36888)
# [20] = biological target: Phosphatidylinositol 4,5-bisphosphate 3-kinase catalytic subunit alpha isoform (Homo sapiens) (UniProt P42336)
# [21] = biological target: Serine/threonine-protein kinase Nek6 (Homo sapiens) (UniProt Q9HC98)
# [22] = biological target: Homeodomain-interacting protein kinase 3 (Homo sapiens) (UniProt Q9H422)
# [23] = biological target: Bone morphogenetic protein receptor type-1B (Homo sapiens) (UniProt O00238)
# [24] = biological target: Dual specificity mitogen-activated protein kinase kinase 1 (Homo sapiens) (UniProt Q02750)
# [25] = test system: Epidermal growth factor receptor (Homo sapiens), P00533 [L858R]
# [26] = biological target: Serine/threonine-protein kinase 24 (Homo sapiens) (UniProt Q9Y6E0)
# [27] = test system: Receptor-type tyrosine-protein kinase FLT3 (Homo sapiens), P36888 [N841I]
# [28] = biological target: Cyclin-dependent kinase 4 (Homo sapiens) (UniProt P11802)
# [29] = biological target: Tyrosine-protein kinase Fgr (Homo sapiens) (UniProt P09769)
# [30] = biological target: Serine/threonine-protein kinase haspin (Homo sapiens) (UniProt Q8TF76)
# [31] = biological target: Peripheral plasma membrane protein CASK (Homo sapiens) (UniProt O14936)
# [32] = biological target: Alpha-2B adrenergic receptor (Homo sapiens) (UniProt P18089); details: Compound concentration 10.0 uM
# [33] = test system: ALK tyrosine kinase receptor (Homo sapiens), Q9UM73 [C1156Y]
# [34] = biological target: Leukocyte tyrosine kinase receptor (Homo sapiens) (UniProt P29376)
# [35] = biological target: Ephrin type-B receptor 1 (Homo sapiens) (UniProt P54762)
# [36] = biological target: Muscarinic acetylcholine receptor M2 (Homo sapiens) (UniProt P08172); details: Compound concentration 10.0 uM
# [37] = test system: Fibroblast growth factor receptor 3 (Homo sapiens), P22607 [G697C]
# [38] = biological target: Interleukin-1 receptor-associated kinase 3 (Homo sapiens) (UniProt Q9Y616)
# [39] = biological target: Serine/threonine-protein kinase Nek5 (Homo sapiens) (UniProt Q6P3R8)
# [40] = biological target: Serine/threonine-protein kinase Nek1 (Homo sapiens) (UniProt Q96PY6)
# [41] = biological target: Ribosomal protein S6 kinase alpha-4 (Homo sapiens) (UniProt O75676)
# [42] = biological target: Testis-specific serine/threonine-protein kinase 1 (Homo sapiens) (UniProt Q9BXA7)
# [43] = biological target: Calcium/calmodulin-dependent protein kinase type II subunit gamma (Homo sapiens) (UniProt Q13555)
# [44] = test system: Tyrosine-protein kinase ABL1 (Homo sapiens), P00519 [Q252H]
# [45] = Compound concentration 1000.0 nM
# [46] = Compound concentration 100.0 nM
# Sequence of Mitogen-activated protein kinase kinase kinase 7 (Homo sapiens) (O43318 whole entry): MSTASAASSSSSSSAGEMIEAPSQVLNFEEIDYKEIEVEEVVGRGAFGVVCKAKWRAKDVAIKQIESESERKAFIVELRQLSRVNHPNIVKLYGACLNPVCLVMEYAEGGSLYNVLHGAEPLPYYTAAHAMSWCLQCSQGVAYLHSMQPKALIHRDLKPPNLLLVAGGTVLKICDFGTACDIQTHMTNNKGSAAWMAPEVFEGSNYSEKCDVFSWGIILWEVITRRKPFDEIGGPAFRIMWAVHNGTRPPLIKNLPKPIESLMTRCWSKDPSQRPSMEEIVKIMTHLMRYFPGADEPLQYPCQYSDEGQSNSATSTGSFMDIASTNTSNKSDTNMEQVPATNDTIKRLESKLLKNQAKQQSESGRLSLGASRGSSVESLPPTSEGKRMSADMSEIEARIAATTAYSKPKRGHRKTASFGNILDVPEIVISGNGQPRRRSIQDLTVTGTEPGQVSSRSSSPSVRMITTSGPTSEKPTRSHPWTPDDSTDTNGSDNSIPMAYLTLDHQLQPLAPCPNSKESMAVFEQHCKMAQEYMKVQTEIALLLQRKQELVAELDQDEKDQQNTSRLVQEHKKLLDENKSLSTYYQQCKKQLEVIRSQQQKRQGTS
# Sequence of Tyrosine-protein kinase Mer (Homo sapiens) (Q12866 whole entry): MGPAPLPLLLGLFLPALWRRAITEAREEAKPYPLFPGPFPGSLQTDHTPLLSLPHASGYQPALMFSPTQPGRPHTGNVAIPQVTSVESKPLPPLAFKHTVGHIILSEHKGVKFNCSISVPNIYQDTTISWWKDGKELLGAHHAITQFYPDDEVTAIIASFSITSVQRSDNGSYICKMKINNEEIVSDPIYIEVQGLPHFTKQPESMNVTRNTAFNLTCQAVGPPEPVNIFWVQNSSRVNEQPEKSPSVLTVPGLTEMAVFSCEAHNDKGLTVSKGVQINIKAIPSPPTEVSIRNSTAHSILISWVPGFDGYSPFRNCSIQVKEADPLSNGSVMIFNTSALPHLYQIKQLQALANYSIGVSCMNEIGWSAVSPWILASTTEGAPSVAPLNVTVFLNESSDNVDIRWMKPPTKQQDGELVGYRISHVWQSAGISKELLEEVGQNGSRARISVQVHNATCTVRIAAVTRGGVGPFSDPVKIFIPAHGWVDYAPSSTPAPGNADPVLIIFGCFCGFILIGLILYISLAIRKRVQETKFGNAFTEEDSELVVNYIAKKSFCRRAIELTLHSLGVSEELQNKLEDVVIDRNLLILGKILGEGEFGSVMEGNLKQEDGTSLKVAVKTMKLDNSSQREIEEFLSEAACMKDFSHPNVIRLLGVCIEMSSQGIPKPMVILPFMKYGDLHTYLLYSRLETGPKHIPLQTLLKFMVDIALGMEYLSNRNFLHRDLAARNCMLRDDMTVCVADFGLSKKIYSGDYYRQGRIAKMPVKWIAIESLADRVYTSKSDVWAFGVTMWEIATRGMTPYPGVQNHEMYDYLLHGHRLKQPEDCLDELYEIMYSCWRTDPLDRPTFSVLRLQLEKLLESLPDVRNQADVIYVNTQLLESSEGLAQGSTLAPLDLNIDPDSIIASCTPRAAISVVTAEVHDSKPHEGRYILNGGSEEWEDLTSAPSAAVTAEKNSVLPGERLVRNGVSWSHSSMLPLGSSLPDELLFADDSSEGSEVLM
# Sequence of Serine/threonine-protein kinase Nek1 (Homo sapiens) (Q96PY6 whole entry): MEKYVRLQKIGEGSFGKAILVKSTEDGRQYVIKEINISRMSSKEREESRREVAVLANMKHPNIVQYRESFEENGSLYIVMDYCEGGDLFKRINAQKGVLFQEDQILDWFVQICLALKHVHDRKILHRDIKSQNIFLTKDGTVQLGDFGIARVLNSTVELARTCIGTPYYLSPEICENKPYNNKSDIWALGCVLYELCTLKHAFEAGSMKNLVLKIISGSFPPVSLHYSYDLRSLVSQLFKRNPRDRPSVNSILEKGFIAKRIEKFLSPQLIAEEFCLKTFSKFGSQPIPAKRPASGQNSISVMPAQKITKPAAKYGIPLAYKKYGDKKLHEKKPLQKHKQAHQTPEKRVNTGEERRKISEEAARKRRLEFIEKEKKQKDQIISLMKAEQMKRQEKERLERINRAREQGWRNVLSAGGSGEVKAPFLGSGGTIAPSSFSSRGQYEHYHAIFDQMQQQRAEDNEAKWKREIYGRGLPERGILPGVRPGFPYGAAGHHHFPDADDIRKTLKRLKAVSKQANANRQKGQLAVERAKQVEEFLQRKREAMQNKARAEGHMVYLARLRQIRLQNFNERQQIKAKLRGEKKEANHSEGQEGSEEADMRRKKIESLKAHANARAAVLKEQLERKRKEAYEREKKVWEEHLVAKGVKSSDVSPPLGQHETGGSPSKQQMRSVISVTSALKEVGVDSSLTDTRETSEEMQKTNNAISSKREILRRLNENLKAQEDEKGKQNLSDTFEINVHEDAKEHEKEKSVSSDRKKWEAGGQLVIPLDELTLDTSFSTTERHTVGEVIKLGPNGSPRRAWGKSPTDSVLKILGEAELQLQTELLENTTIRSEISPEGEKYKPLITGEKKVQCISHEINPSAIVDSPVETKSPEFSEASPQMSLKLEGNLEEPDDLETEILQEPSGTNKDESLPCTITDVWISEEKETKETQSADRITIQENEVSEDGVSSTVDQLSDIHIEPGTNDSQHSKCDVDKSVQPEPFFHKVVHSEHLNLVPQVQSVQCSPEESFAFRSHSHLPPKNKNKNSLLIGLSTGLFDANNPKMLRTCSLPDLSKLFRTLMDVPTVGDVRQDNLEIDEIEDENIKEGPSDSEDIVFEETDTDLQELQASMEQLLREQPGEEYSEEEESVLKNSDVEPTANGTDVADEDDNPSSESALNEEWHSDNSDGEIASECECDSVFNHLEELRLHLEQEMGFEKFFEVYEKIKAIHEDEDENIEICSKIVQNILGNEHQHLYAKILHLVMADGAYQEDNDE
# Sequence of Ribosomal protein S6 kinase alpha-4 (Homo sapiens) (O75676 whole entry, looked up): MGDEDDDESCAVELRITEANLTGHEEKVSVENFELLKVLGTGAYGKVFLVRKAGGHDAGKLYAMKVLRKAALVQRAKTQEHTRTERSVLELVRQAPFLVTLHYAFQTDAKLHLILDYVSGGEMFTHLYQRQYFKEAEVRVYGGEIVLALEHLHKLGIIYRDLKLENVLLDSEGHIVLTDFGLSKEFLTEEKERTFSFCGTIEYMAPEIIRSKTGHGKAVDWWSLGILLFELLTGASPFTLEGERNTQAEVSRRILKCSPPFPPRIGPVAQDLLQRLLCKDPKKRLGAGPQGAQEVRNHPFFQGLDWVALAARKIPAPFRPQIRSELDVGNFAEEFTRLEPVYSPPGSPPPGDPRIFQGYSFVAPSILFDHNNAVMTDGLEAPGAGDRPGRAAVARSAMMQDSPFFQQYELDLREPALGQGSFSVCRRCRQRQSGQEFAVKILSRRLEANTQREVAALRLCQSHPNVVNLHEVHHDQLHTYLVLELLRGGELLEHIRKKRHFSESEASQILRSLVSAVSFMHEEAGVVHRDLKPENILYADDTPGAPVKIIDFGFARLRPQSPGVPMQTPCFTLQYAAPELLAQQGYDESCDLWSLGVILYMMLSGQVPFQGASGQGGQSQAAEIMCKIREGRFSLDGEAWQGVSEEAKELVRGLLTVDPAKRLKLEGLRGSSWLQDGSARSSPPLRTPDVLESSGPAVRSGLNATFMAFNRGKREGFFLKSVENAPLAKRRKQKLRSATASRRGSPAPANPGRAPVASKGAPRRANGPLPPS
# Sequence of Mitogen-activated protein kinase kinase kinase 5 (Homo sapiens) (Q99683 whole entry): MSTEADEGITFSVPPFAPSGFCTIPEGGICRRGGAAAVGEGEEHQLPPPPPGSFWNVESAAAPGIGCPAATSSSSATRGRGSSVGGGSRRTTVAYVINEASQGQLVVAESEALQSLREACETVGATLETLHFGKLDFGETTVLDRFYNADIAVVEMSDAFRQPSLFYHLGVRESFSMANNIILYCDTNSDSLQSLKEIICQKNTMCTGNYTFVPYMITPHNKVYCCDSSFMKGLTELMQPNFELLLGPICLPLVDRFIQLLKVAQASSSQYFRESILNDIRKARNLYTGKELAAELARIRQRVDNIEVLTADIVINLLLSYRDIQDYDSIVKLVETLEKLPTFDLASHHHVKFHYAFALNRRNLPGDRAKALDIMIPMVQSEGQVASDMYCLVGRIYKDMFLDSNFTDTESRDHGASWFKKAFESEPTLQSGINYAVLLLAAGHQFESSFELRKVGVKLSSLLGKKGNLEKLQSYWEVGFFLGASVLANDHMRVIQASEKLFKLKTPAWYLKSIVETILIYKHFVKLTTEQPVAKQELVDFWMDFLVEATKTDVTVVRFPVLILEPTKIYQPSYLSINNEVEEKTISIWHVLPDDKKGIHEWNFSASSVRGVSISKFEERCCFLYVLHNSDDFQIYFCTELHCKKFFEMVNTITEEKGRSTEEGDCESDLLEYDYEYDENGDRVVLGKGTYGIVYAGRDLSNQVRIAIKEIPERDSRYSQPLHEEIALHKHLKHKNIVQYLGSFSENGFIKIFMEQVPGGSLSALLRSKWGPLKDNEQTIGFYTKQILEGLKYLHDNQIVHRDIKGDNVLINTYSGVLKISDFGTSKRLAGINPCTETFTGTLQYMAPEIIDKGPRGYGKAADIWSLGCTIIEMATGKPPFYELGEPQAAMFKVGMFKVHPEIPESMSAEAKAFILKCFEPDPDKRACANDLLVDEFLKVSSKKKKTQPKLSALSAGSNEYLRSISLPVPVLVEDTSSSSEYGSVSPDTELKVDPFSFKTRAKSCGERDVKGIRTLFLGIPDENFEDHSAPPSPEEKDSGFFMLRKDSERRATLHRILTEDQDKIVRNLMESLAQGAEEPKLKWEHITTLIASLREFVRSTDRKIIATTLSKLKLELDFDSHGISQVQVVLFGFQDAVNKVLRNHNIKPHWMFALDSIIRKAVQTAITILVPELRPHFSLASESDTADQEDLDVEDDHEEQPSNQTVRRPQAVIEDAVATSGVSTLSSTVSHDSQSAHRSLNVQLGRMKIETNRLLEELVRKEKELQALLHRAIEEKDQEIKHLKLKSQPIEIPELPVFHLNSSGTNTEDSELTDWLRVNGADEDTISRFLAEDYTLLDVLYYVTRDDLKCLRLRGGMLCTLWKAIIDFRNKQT
structure (smiles),measurement,setting,value
CN(C)c1ncnc(-c2ccc3nc(Nc4cc(CN5CCN(C(=O)CC(F)(F)F)CC5)ccn4)[nH]c3c2)c1Cl [BAY-440],residual activity,[1]; [45],100%
same,residual activity,[2]; [45],88%
same,residual activity,[3]; [45],80%
same,residual activity,[4]; [45],100%
same,residual activity,[5]; [45],87%
same,residual activity,[6]; [45],74%
same,residual activity,[7]; [45],76%
same,inhibition,[8],2.06%
same,inhibition,Rattus norvegicus,13.9%
same,inhibition,[9],68.1%
same,residual activity,[10]; [45],85%
same,residual activity,[11]; [45],100%
same,residual activity,[12]; [45],81%
same,residual activity,[13]; [45],100%
same,residual activity,[14]; [45],100%
same,residual activity,[15]; [45],74%
same,residual activity,[16]; [45],38%
same,residual activity,[17]; [45],100%
same,residual activity,[18]; [45],51%
same,residual activity,[19]; [45],71%
same,residual activity,[20]; [45],100%
same,residual activity,[21]; [45],98%
same,residual activity,[22]; [45],100%
same,residual activity,[23]; [45],59%
same,residual activity,[24]; [45],78%
same,residual activity,[25]; [45],100%
same,residual activity,[26]; [45],90%
same,residual activity,[27]; [45],53%
same,residual activity,[28]; [45],70%
same,residual activity,[29]; [45],98%
same,residual activity,[30]; [45],100%
same,residual activity,[31]; [45],89%
same,inhibition,[32],-2.22%
same,residual activity,[33]; [45],59%
same,residual activity,[34]; [45],88%
same,residual activity,[35]; [45],97%
same,inhibition,[36],35.1%
same,residual activity,[37]; [45],100%
same,residual activity,[38]; [45],97%
same,residual activity,[39]; [45],100%
same,residual activity,[40]; [45],88%
same,residual activity,[41]; [45],73%
same,residual activity,[42]; [45],100%
same,residual activity,[43]; [45],100%
same,residual activity,[44]; [45],29%
C[C@H](c1ccnc(Nc2nc3ccc(-c4cc(N(C)C)ncn4)cc3[nH]2)c1)N1CCN(C(=O)CC(F)(F)F)CC1 [BAY-985],residual activity,[1]; [46],100%
same,residual activity,[2]; [46],100%
same,residual activity,[3]; [46],93%
same,residual activity,[4]; [46],100%
same,residual activity,[5]; [46],97%
same,residual activity,[6]; [46],65%
same,residual activity,[7]; [46],96%
same,inhibition,[8],29%
same,inhibition,Rattus norvegicus,-2.73%
same,inhibition,[9],54.1%
same,residual activity,[10]; [46],100%
same,residual activity,[11]; [46],100%
same,residual activity,[12]; [46],60%
same,residual activity,[13]; [46],100%
same,residual activity,[14]; [46],100%
same,residual activity,[15]; [46],85%
same,residual activity,[16]; [46],79%
same,residual activity,[17]; [46],99%
same,residual activity,[18]; [46],100%
same,residual activity,[19]; [46],95%
same,residual activity,[20]; [46],100%
same,residual activity,[21]; [46],83%
same,residual activity,[22]; [46],100%
same,residual activity,[23]; [46],86%
same,residual activity,[24]; [46],99%
same,residual activity,[25]; [46],95%
same,residual activity,[26]; [46],64%
same,residual activity,[27]; [46],43%
same,residual activity,[28]; [46],89%
same,residual activity,[29]; [46],85%
same,residual activity,[30]; [46],100%
same,residual activity,[31]; [46],100%
same,inhibition,[32],24.7%
same,residual activity,[33]; [46],100%
same,residual activity,[34]; [46],100%
same,residual activity,[35]; [46],98%
same,inhibition,[36],32.9%
same,residual activity,[37]; [46],100%
same,residual activity,[38]; [46],76%
same,residual activity,[39]; [46],100%
same,residual activity,[40]; [46],93%
same,residual activity,[41]; [46],94%
same,residual activity,[42]; [46],100%
same,residual activity,[43]; [46],77%
same,residual activity,[44]; [46],84%
